Source: patent publication US20250352615A1, “COMPOSITIONS AND METHODS FOR THE MODULATION OF PIEZO1 AND TRPV4” (Duke University, priority 2021, published 2025)

Columns and labels:
TRPV4 [1] = target: T1, TRPV4 (Mus musculus, UniProt Q9EPK8); assay: Calcium imaging of TRPV4-mediated [Ca2+]i in pancreatic acini (agonists, shear stress, Yoda1 sustained phase); type: cell-based
T1 construct: endogenous in cells; host or cells: freshly isolated mouse pancreatic acini (C57BL/6J WT)
Procedure: (§1) Mouse pancreatic acini were isolated using a standard collagenase digestion protocol. Isolated acini were plated on a thin-layered, Matrigel-coated, glass-bottom, culture plate (MatTek, P35G-0-14-C). Freshly isolated acini were used in each experiment.
Parallel-plate fluid flow chambers (μ-Slide I 0.4 Luer, and μ-Slide I 0.2 Luer from Ibidi GmbH) were used to measure the shear stress-induced changes in intracellular calcium, mitochondrial depolarization, and trypsin activation. The constant flow rate with shear stress (T) was determined as follows: τ=η×[…] φ for μ-Slide I 0.4 Luer and τ=η×330.4 φ for μ-Slide I 0.2 Luer, where η=viscosity of the medium and φ=flow rate (according to the manufacturer's instructions, Ibidi).
(§2) Calcium imaging in pancreatic acini was performed as previously described. The chemicals used in calcium imaging experiments included the following: Yoda1 (Tocris; 5586), GsMTx4 (Abcam; ab141871), 5′,6′-EET (Santa Cruz Biotechnology; sc-221066), AA (Millipore Sigma; A3611), HC067047 (Tocris; 4100), GSK1016790A (Millipore Sigma; G0798), RN1734 (Tocris; 3746), AACOCF3 (Tocris; 1462), YM26734 (Tocris; 2522), GF109203X (Tocris; 0741), and CCK8 (Sigma-Aldrich).

TRPV4 [2] = target: T2, TRPV4 (Homo sapiens, UniProt Q9HBA0); assay: Calcium imaging of TRPV4-mediated [Ca2+]i in human PSCs; type: cell-based
T2 construct: Fresh, human pancreatic tissue was digested with collagenase as described above with modifications; endogenous in cells; host or cells: primary human pancreatic stellate cells from fresh human pancreatic tissue
T2 sequence (Q9HBA0 whole entry): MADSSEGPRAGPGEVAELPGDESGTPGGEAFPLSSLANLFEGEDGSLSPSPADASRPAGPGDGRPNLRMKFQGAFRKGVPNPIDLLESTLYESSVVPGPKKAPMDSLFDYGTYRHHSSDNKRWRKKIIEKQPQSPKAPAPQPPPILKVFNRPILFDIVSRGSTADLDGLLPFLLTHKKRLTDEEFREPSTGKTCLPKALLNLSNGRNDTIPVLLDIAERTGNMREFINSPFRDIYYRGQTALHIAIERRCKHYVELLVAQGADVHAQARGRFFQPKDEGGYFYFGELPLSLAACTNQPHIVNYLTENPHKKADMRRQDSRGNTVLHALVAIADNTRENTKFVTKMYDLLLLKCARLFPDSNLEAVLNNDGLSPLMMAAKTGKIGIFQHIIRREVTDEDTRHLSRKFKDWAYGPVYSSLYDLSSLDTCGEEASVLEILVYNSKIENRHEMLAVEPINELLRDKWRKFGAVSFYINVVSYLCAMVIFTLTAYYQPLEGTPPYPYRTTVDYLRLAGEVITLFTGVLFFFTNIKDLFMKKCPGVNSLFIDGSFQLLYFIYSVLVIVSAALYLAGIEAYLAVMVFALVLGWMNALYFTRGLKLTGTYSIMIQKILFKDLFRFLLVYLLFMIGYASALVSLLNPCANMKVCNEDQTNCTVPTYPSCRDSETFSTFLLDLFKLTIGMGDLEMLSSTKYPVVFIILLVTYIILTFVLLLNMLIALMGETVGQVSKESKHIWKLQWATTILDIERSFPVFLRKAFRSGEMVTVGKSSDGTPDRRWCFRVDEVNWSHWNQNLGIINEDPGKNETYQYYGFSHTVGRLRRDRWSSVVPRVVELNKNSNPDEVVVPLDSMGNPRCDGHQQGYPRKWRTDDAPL
Procedure: Mouse and human PSCs were isolated using collagenase digestion. Modified Krebs Henseleit Buffer (KHB) solution (100 mL) was prepared as previously described by Romac et al., Nat. Commun. 9(1):1715 (2018). Pancreatic tissue was digested with 2 mg of collagenase NB 8 (SERVA, catalog 17456) dissolved in 10 mL of modified KHB solution containing 1 mg soybean trypsin inhibitor (SBTI 1-S; Millipore Sigma, catalog T9003) and 20 mg BSA (Thermo Fisher Scientific; BP1600-100). Digestion solution (5 mL) was used to inflate the pancreas. Pancreas with 5 mL of digestion solution was incubated in a shaking water bath for 10 minutes at 37° C. The solution was then discarded. The pancreas tissue was cut into small pieces and digested with fresh 5 mL digestion buffer. Tissue was incubated in a shaking water bath for 40 minutes at 37° C. The cells were then separated from tissue by pipetting up-down with a 10 mL pipette and passed sequentially through a 70 μm and a 40 μm cell strainer. The filtrate was centrifuged at 150×g for 3 minutes at room temperature. The cells were washed with 10 mL Leibovitz's media (Thermo Fisher Scientific, catalog 11415-064), passed through a 20 μm filter, and centrifuged at 80×g for 3 minutes at room temperature. […] The cell viability following Yoda1 treatment was analyzed using the Live/Dead cell imaging kit (Thermo Fisher Scientific, catalog R37601). […]

TRPV4 [3] = target: T1, TRPV4; assay: Calcium imaging of TRPV4-mediated [Ca2+]i in mouse PSCs; type: cell-based
Procedure: Mouse and human PSCs were isolated using collagenase digestion. Modified Krebs Henseleit Buffer (KHB) solution (100 mL) was prepared as previously described by Romac et al., Nat. Commun. 9(1):1715 (2018). Pancreatic tissue was digested with 2 mg of collagenase NB 8 (SERVA, catalog 17456) dissolved in 10 mL of modified KHB solution containing 1 mg soybean trypsin inhibitor (SBTI 1-S; Millipore Sigma, catalog T9003) and 20 mg BSA (Thermo Fisher Scientific; BP1600-100). Digestion solution (5 mL) was used to inflate the pancreas. Pancreas with 5 mL of digestion solution was incubated in a shaking water bath for 10 minutes at 37° C. The solution was then discarded. The pancreas tissue was cut into small pieces and digested with fresh 5 mL digestion buffer. Tissue was incubated in a shaking water bath for 40 minutes at 37° C. The cells were then separated from tissue by pipetting up-down with a 10 mL pipette and passed sequentially through a 70 μm and a 40 μm cell strainer. The filtrate was centrifuged at 150×g for 3 minutes at room temperature. The cells were washed with 10 mL Leibovitz's media (Thermo Fisher Scientific, catalog 11415-064), passed through a 20 μm filter, and centrifuged at 80×g for 3 minutes at room temperature. The supernate was removed, and isolated stellate cells were plated on a thin-layered Matrigel-coated glass bottom culture plate (MatTek, P35G-0-14-C). Before plating the cells, Matrigel solution (Corning, catalog 354234) at a ratio of 1.5:100 DMEM/F12 (Thermo Fisher Scientific, catalog 11330-032) was poured onto the culture plate and incubated for 2 hr at 37° C. to form a thin layer of Matrigel coating. Matrigel mixture was removed, and the plate was washed with PBS before cells were plated. Cell culture media, DMEM/F12 with 5% FBS was used for mouse stellate cells. Fresh, human pancreatic tissue was digested with collagenase as described above with modifications. […] The cell viability following Yoda1 treatment was analyzed using the Live/Dead cell imaging kit (Thermo Fisher Scientific, catalog R37601). […]

pancreatic acini = assay: CCK-induced [Ca2+]i in pancreatic acini; type: cell-based, mouse; conditions: HC067 1 μM; CCK 1 nM
Procedure: as §1, §2

KPCY cells = assay: Orthotopic KPCY cell PDAC model with TRPV4 blocker via osmotic minipump; type: in vivo, mouse; conditions: GSK2193874 20 mg/mL, 100 μL in subcutaneous osmotic minipump, 20 days; preliminary
Procedure: In this experimental model, KPCY cells (100,000 cells in 25 μL phosphate buffer saline pH 7, containing 1% Matrigel) are injected into the tail region of the pancreas with and without a TRPV4 blocker to investigate if a TRPV4 inhibitor can inhibit PDAC growth and stop cancer cell metastasis. For accurate and continuous dosing, the TRPV4 blocker is placed in an infusion osmotic minipump (ALZET) implanted subcutaneously. Mice are observed for 20 days. On day 20, liver and pancreas tissue are processed for microscopic imaging and quantification of mRNA levels. Serum samples are collected for analysis and quantification of pro-metastatic factors.
Tumor growth and serum SAA were measured 20 days after transplantation of KPCY cells into the pancreas, as described in FIG. 33. Mice were treated with GSK2193874 (20 mg/mL) dissolved in 6% cavitron saline buffer and 100 μL drug solution was loaded in an osmotic minipump implanted subcutaneously for 20 days.
KPCY cells resuspended in PBS+1% matrigel after trypsinization. Either 10,000 or 100,000 cells in 20 μl PBS were injected into the pancreatic tail. […]
Orthotopic injection of KPCY cells with implantation of micro-osmotic pump (Alzet, 1004) filled with either vehicle (6% cavitron W7 HP7 in water—Ashland) or GSK2193874 at 20 mg/mL. Mice were euthanized 20 days later, and organs were measured and harvested. […]

T1 sequence (Q9EPK8 whole entry): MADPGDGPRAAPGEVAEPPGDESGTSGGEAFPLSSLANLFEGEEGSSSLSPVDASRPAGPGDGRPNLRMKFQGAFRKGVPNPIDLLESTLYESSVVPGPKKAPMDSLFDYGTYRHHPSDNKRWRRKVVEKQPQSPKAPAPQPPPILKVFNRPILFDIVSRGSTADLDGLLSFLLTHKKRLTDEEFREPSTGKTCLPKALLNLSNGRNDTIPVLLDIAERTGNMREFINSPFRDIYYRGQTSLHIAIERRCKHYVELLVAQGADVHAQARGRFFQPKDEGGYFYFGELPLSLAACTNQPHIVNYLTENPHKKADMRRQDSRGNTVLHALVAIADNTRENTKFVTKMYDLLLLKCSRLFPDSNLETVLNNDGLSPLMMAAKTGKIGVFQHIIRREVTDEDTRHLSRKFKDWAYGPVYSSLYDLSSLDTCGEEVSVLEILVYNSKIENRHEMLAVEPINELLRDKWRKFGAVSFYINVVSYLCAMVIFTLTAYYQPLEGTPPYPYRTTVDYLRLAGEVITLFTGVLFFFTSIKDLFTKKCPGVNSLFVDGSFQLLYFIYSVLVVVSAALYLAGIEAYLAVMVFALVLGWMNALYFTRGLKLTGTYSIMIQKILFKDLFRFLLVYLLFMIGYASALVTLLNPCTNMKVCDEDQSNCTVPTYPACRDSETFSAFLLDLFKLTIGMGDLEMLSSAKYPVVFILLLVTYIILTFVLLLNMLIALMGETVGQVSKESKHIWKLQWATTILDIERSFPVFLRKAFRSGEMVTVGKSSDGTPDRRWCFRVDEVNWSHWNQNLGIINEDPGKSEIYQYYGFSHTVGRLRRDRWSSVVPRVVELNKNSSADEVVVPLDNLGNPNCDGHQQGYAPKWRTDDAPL

CC(C)C[C@H](NC(=O)c1cc2ccccc2s1)C(=O)N1CCN(C(=O)[C@H](CO)NS(=O)(=O)c2ccc(Cl)cc2Cl)CC1 [GSK101]
agonist effect on [Ca2+]i (TRPV4 [1]; GSK101 50 nM, arachidonic acid 20 μM, 5′,6′-EET 5 μM): induced a significant increase in [Ca^2+]i
agonist effect on [Ca2+]i (TRPV4 [2]; GSK101 100 nM, quiescent human PSCs): produced a sustained elevation in [Ca^2+]i
agonist effect on [Ca2+]i (TRPV4 [3]; GSK101 100 nM, quiescent mouse PSCs): produced a sustained elevation in [Ca^2+]i

Cc1c(C(=O)Nc2cccc(C(F)(F)F)c2)cc(-c2ccccc2)n1CCCN1CCOCC1 [HC067]
effect on AA- and 5′,6′-EET-induced [Ca2+]i increases (TRPV4 [1]; HC067 100 nM): inhibited
effect on GSK101 (50 nM)-induced [Ca2+]i increase (TRPV4 [1]; HC067 100 nM, RN1734 30 μM): inhibited
effect on shear stress-induced sustained [Ca2+]i elevation (TRPV4 [1]; HC067 1 μM, 12 dyne/cm^2 for 30 seconds): blocked the sustained [Ca^2+]i elevation, leaving only transient alterations in [Ca^2+]i
effect on Yoda1-stimulated sustained [Ca2+]i increase (TRPV4 [1]; HC067 1 μM, Yoda1 25 μM): completely blocked the Yoda1-stimulated (25 μM) sustained increase in [Ca^2+]i
effect on GSK1016790A-induced sustained [Ca2+]i elevation (TRPV4 [2]; HC067 1 μM, human PSCs): blocked
effect on GSK1016790A-induced sustained [Ca2+]i elevation (TRPV4 [3]; HC067 1 μM, mouse PSCs): blocked
effect on CCK-stimulated peak or sustained [Ca2+]i (pancreatic acini): did not affect the CCK-stimulated (1 nM) peak or sustained [Ca^2+]i changes

O=C(NC1(c2ccccc2)CC1)c1c(CN2CCC(N3CCCCC3)CC2)c(-c2cccc(C(F)(F)F)c2)nc2cc(Br)ccc12 [GSK2193874]
pancreatic cancer (PDAC) growth (KPCY cells): inhibited pancreatic cancer growth
serum SAA levels (KPCY cells): reduced serum SAA levels
